From ChEMBL document CHEMBL1671743, “Affinity of ceftobiprole for penicillin-binding protein 2b in Streptococcus pneumoniae strains with various susceptibilities to penicillin” (Antimicrob Agents Chemother, 2010)
Converted amounts (≈) assume the structure as drawn.

Legend:
[1] = tested on: Streptococcus pneumoniae; assay: Antimicrobial activity against laboratory-derived Streptococcus pneumoniae isolate R6 by broth microdilution method; assay type: functional
[2] = target: Penicillin-binding protein 2B (Streptococcus pneumoniae (strain ATCC BAA-255 / R6), UniProt P0A3M6, A619G/T446A); assay: Inhibition of Bocillin FL binding to PBP2b Thr446Ala/Ala-619-Gly mutant in laboratory-derived Streptococcus pneumoniae isolate R6
Chain of Penicillin-binding protein 2B (Streptococcus pneumoniae (strain ATCC BAA-255 / R6), UniProt P0A3M6, A619G/T446A) (P0A3M6 whole entry T446A/A619G): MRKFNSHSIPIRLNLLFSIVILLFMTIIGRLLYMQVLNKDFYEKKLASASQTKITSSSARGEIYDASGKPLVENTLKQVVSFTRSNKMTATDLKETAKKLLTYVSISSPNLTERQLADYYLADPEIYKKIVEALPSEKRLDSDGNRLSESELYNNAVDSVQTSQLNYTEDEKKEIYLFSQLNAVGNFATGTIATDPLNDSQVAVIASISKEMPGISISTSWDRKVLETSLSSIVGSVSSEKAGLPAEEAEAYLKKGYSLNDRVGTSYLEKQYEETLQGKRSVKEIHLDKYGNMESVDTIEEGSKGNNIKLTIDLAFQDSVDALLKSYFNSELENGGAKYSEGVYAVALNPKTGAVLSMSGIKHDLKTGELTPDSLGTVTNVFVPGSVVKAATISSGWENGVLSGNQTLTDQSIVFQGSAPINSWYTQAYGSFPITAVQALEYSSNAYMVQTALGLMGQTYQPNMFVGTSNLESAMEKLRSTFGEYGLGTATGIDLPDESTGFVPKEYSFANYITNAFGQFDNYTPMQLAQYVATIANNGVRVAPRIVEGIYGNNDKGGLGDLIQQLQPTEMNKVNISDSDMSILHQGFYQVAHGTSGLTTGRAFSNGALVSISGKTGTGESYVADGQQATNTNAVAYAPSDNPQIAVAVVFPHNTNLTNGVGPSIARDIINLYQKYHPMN

[3] = tested on: Streptococcus pneumoniae; assay: Antimicrobial activity against laboratory-derived Streptococcus pneumoniae isolate R6 harboring Thr446Ala mutant gene by broth microdilution method; assay type: functional
[4] = target: T1, Penicillin-binding protein 2B (Streptococcus pneumoniae serotype 4 (strain ATCC BAA-334 / TIGR4), UniProt P0A3M5); assay: Inhibition of Bocillin FL binding to PBP2b in laboratory-derived Streptococcus pneumoniae isolate R6
T1 sequence (P0A3M5 whole entry): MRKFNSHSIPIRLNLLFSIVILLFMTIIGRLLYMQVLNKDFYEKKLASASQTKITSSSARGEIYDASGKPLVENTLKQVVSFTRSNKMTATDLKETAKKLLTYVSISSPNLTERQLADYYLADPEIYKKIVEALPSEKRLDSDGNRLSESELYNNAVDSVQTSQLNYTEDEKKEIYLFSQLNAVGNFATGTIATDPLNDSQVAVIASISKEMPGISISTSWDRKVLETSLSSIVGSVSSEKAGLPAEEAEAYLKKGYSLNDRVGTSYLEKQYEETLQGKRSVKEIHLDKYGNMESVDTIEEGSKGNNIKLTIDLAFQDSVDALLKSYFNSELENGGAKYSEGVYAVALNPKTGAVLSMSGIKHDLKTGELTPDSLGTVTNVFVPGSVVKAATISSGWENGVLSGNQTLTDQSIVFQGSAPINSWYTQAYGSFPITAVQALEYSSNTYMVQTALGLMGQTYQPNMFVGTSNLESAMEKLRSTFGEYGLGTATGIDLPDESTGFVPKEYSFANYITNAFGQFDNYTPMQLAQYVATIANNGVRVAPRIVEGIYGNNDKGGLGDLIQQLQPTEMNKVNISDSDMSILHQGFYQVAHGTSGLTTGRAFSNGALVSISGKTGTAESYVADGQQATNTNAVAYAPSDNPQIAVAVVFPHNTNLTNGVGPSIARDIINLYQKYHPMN

[5] = tested on: Streptococcus pneumoniae; assay: Antimicrobial activity against penicillin sensitive Streptococcus pneumoniae isolate 8865 by broth microdilution method; assay type: functional
[6] = tested on: Streptococcus pneumoniae; assay: Antimicrobial activity against penicillin intermediate resistant Streptococcus pneumoniae isolate 8009 harboring PBP2b 443SSNA mutant by broth microdilution method; assay type: functional
[7] = tested on: Streptococcus pneumoniae; assay: Antimicrobial activity against penicillin intermediate resistant Streptococcus pneumoniae isolate 8882 harboring PBP2b 443SSNA mutant by broth microdilution method; assay type: functional
[8] = target: T2, Penicillin-binding protein 2B (Streptococcus pneumoniae (strain ATCC BAA-255 / R6), UniProt P0A3M6, T446A); assay: Inhibition of Streptococcus pneumoniae isolate 8882 Bocillin FL binding to PBP2b 443SSNA mutant
T2 sequence (P0A3M6 whole entry T446A): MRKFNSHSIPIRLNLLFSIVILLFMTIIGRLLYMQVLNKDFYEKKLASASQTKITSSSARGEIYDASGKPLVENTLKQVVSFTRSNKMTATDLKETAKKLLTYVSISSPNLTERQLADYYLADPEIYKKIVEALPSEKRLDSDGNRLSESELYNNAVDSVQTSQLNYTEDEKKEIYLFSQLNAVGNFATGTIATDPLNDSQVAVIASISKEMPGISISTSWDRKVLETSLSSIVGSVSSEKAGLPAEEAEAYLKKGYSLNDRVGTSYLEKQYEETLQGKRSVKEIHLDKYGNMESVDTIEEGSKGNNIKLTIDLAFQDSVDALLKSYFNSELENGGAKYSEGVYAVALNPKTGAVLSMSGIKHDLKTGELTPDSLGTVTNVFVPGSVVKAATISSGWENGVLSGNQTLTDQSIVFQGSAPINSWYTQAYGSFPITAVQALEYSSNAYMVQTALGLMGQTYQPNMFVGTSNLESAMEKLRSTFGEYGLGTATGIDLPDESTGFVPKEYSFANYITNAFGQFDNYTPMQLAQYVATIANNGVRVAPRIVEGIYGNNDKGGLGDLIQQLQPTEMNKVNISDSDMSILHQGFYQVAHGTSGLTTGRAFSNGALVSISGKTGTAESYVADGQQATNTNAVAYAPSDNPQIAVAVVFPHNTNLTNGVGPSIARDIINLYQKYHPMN

[9] = tested on: Streptococcus pneumoniae; assay: Antimicrobial activity against penicillin resistant Streptococcus pneumoniae isolate 8819 harboring PBP2b 443SSNA mutant by broth microdilution method; assay type: functional
[10] = target: T2, Penicillin-binding protein 2B; assay: Inhibition of Bocillin FL binding to PBP2b Thr446Ala mutant in laboratory-derived Streptococcus pneumoniae isolate R6
[11] = target: Penicillin-binding protein 2B (Streptococcus pneumoniae (strain ATCC BAA-255 / R6), UniProt P0A3M6, A619G); assay: Inhibition of Bocillin FL binding to PBP2b in Streptococcus pneumoniae isolate 8819 harboring E333G, I361L, E369D, S412P, N422Y, T426K, Q427L, Q438E, L455I, S473T, E476G, S480A, T489A, N538D, D561E, Q564K, and D625G mutant genes
Chain of Penicillin-binding protein 2B (Streptococcus pneumoniae (strain ATCC BAA-255 / R6), UniProt P0A3M6, A619G) (P0A3M6 whole entry A619G): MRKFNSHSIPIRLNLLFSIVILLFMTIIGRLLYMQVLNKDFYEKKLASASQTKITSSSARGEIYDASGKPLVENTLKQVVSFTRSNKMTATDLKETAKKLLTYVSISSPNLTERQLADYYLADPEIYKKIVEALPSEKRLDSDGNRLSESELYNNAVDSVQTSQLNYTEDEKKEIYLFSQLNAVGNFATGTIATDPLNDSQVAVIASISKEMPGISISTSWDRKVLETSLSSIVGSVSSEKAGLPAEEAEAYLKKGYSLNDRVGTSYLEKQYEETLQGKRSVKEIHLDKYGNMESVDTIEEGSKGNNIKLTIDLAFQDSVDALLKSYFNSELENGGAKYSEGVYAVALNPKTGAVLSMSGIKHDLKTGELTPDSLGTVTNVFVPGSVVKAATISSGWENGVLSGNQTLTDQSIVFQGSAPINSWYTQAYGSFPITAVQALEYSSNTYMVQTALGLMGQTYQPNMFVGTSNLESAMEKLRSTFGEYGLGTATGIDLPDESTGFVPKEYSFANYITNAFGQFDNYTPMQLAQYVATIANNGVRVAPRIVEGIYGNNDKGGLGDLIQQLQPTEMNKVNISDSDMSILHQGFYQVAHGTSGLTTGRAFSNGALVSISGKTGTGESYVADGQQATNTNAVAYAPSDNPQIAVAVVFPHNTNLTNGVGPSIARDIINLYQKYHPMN

[12] = target: T1, Penicillin-binding protein 2B; assay: Inhibition of Bocillin FL binding to Streptococcus pneumoniae isolate 8865 PBP2b
[13] = target: T2, Penicillin-binding protein 2B; assay: Inhibition of Bocillin FL binding to PBP2b PBP2b 443SSNA mutant in Streptococcus pneumoniae isolate 8009 harboring E333G, N470K, E476G, T489S, E506D, and N538D mutant genes
[14] = tested on: Streptococcus pneumoniae; assay: Antimicrobial activity against laboratory-derived Streptococcus pneumoniae isolate R6 harboring Thr446Ala/Ala-619-Gly mutant gene by broth microdilution method; assay type: functional

SMILES | MIC [1] [µg/mL] | IC50 [2] [nM] | MIC [3] [µg/mL] | IC50 [4] [nM] | MIC [5] [µg/mL] | MIC [6] [µg/mL] | MIC [7] [µg/mL] | IC50 [8] [nM] | MIC [9] [µg/mL] | IC50 [10] [nM] | IC50 [11] [nM] | IC50 [12] [nM] | IC50 [13] [nM] | MIC [14] [µg/mL]
CC1(C)S[C@@H]2[C@H](NC(=O)Cc3ccccc3)C(=O)N2[C@H]1C(=O)O [PENICILLIN G] | 0.015 (≈ 0.0449 µM) | 5380 | 0.015 (≈ 0.0449 µM) | 449 | ≤ 0.015 | 0.12 (≈ 0.359 µM) | 0.12 (≈ 0.359 µM) | 7480 | 8 (≈ 23.9 µM) | 2390 | > 23900 | 23.9 | 7480 | 0.03 (≈ 0.0897 µM)
Nc1nc(/C(=N/O)C(=O)N[C@@H]2C(=O)N3C(C(=O)O)=C(/C=C4\CCN([C@@H]5CCNC5)C4=O)CS[C@H]23)ns1 [CEFTOBIPROLE] | 0.002 (≈ 0.00374 µM) | 3180 | 0.002 (≈ 0.00374 µM) | 112 | 0.008 (≈ 0.015 µM) | 0.015 (≈ 0.0281 µM) | 0.008 (≈ 0.015 µM) | 2240 | 1 (≈ 1.87 µM) | 1310 | > 15000 | 112 | 1680 | 0.004 (≈ 0.00748 µM)
CO/N=C(\C(=O)N[C@@H]1C(=O)N2C(C(=O)O)=C(CSc3nc(=O)c(O)nn3C)CS[C@H]12)c1csc(N)n1 [CEFTRIAXONE] | 0.008 (≈ 0.0144 µM) |  | 0.008 (≈ 0.0144 µM) | > 14400 | 0.03 (≈ 0.0541 µM) | 0.06 (≈ 0.108 µM) | 0.06 (≈ 0.108 µM) | > 14400 | 8 (≈ 14.4 µM) |  | > 14400 | > 14400 | > 14400 | 0.015 (≈ 0.027 µM)
